In US12667605B2, “Pharmaceutical composition for oral administration of a GLP-1 receptor agonist” (priority 2021, dated 2026):

Experiments:
Type in all cases: in vitro ADME
pepsin [1] = biological target: T1, pepsin (Sus scrofa, UniProt P00791); assay: Protection of semaglutide under gastric conditions reproduced in vitro, with pepsin (Example 2, UHPLC-UV); details: for Semaglutide residual content (%): simulated gastric medium at pH 1.2 with pepsin (3.2 mg/ml), 0.05 mg/ml semaglutide, 37° C.
Procedure: (§1) The purpose of this test is to show the gastric stability of semaglutide in a composition according to the invention. • Step 1) The tablet obtained in Example 1A was dissolved in 50 mL of drinking water in order to obtain a buffered solution. • Step 2) The simulated gastric medium was prepared with hydrochloric acid (0.2 N HCl), adjusting the pH to 1.2. • Step 3) The buffered solution obtained in step 1) was mixed with 50 ml of simulated gastric medium, in order to obtain a final solution of 100 ml with 0.1 N HCL. • Step 4) Semaglutide was added to the solution obtained in step 3), in is order to obtain a final concentration of semaglutide of 0.05 mg/ml. • Step 5) Pepsin was added to the solution obtained in step 4) at a final concentration of 3.2 mg/ml or without addition of pepsin (without pepsin), and the solution obtained was kept under constant stirring at 37° C. for 2 hours.
(§2) The semaglutide assay was performed by ultra-high performance liquid chromatography (UHPLC) coupled to an ultraviolet (UV) detector using an external standard calibration. The residual semaglutide content was calculated by measuring the semaglutide content at time t relative to the initial semaglutide content. The result is a ratio expressed in percent (%). The residual content of semaglutide corresponds to the protection percentage of semaglutide.

[2] = Stability of semaglutide in simulated gastric medium at pH 1.2 without pepsin (Example 2, UHPLC-UV); details: for Semaglutide residual content (%): simulated gastric medium at pH 1.2 without pepsin, 0.05 mg/ml semaglutide, 37° C.
Procedure: as §1, §2

pepsin [3] = biological target: T1, pepsin; assay: Protection of semaglutide compared to Rybelsus under gastric conditions reproduced in vitro, with pepsin (Example 4, HPLC); details: buffered solution; simulated gastric medium pH 1.2 with pepsin (3.2 mg/mL); 0.05 mg/ml of semaglutide; T = 2 h; 37° C.
Procedure: (§3) The gastro-resistance tests with semaglutide were carried out at a concentration of 0.05 mg/mL (5 mg of semaglutide in final 100 mL). The simulated gastric medium was prepared following the same protocol as that described in Example 3.
(§4) The product Rybelsus® comprises Semaglutide, Sodium Salcaprozate (SNAC), Povidone, Microcrystalline Cellulose, and Magnesium Stearate. • Step 1) A 14 mg Rybelsus® tablet was used for the comparative tests and was dissolved in 50 mL of drinking water for thirty minutes with stirring. The final semaglutide concentration was 0.28 mg/mL. • Step 2) An effervescent tablet (according to Example 1A) was added or not to the solution obtained in step 1. After cessation of effervescence, 50 ml of 0.2 N HCL at pH 1.2 were added to obtain a final solution of 100 ml of 0.1 N HCL, which corresponds to the simulated gastric environment. The final concentration of semaglutide is 14 mg per 100 mL. • Step 3) The pepsin was then added or not to the solution obtained in step 2, at the conventional dose of 3.2 mg/ml. The test was carried out for 2 hours at a temperature of 37° C.
The semaglutide content was specifically assayed by high performance liquid chromatography (HPLC). The residual content was calculated by measuring the semaglutide content at time t relative to the initial semaglutide content. The result is a ratio expressed in percent (%). […]

[4] = Stability of semaglutide compared to Rybelsus in simulated gastric medium pH 1.2 without pepsin (Example 4, HPLC); details: for Residual semaglutide content in percent (%): buffered solution, simulated gastric medium pH 1.2 without pepsin, 0.05 mg/mL of semaglutide, 37° C.
Procedure: as §3, §4
The semaglutide content was specifically assayed by high performance liquid chromatography (HPLC). The residual content was calculated by measuring the semaglutide content at time t relative to the initial semaglutide content. The result is a ratio expressed in percent (%). The residual content of semaglutide corresponds to the percentage of protection of the semaglutide.

T1 sequence (P00791 60-385): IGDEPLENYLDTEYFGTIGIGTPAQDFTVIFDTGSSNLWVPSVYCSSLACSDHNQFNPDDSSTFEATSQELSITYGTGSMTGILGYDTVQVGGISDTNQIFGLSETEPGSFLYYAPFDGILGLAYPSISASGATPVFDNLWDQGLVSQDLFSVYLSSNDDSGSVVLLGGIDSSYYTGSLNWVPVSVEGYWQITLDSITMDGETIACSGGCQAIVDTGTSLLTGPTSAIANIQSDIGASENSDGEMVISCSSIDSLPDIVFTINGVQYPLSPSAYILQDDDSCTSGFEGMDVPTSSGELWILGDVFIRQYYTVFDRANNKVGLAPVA

Q: With `CC[C@H](C)[C@H](NC(=O)[C@H](Cc1ccccc1)NC(=O)[C@H](CCC(=O)O)NC(=O)[C@H](CCCCNC(=O)COCCOCCNC(=O)COCCOCCNC(=O)CC[C@H](NC(=O)CCCCCCCCCCCCCCCCC(=O)O)C(=O)O)NC(=O)[C@H](C)NC(=O)[C@H](C)NC(=O)[C@H](CCC(N)=O)NC(=O)CNC(=O)[C@H](CCC(=O)O)NC(=O)[C@H](CC(C)C)NC(=O)[C@H](Cc1ccc(O)cc1)NC(=O)[C@H](CO)NC(=O)[C@H](CO)NC(=O)[C@@H](NC(=O)[C@H](CC(=O)O)NC(=O)[C@H](CO)NC(=O)[C@@H](NC(=O)[C@H](Cc1ccccc1)NC(=O)[C@@H](NC(=O)CNC(=O)[C@H](CCC(=O)O)NC(=O)C(C)(C)NC(=O)[C@@H](N)Cc1cnc[nH]1)[C@@H](C)O)[C@@H](C)O)C(C)C)C(=O)N[C@@H](C)C(=O)N[C@@H](Cc1c[nH]c2ccccc12)C(=O)N[C@@H](CC(C)C)C(=O)N[C@H](C(=O)N[C@@H](CCCNC(=N)N)C(=O)NCC(=O)N[C@@H](CCCNC(=N)N)C(=O)NCC(=O)O)C(C)C` [semaglutide] as the compound, how does the residual content (pepsin [1]; acid medium with pepsin and without a buffer system, time not given) read?
A: 0%

Q: What about the “Semaglutide residual content (%)” value (pepsin [1]; with the buffered solution (Example 1A tablet)) of the same compound?
A: 104.6%

Q: What about the “Semaglutide residual content (%)” value (pepsin [1]; without buffer system) of the same compound?
A: 0%

Q: And the “degradation of semaglutide (in words)” value ([2]; formulated with a buffer system, after 2 hours, without pepsin)?
A: not degraded

Q: What about the “Semaglutide residual content (%)” value ([2]; with the buffered solution (Example 1A tablet), T 0 h) of the same compound?
A: 103.5%

Q: And the “Semaglutide residual content (%)” value ([2]; with the buffered solution (Example 1A tablet), T 2 h)?
A: 104.1%

Q: And the “Semaglutide residual content (%)” value ([2]; without buffer system, T 0 h)?
A: 100%

Q: And the “Residual semaglutide content in percent (%)” value (pepsin [3])?
A: 105.2%

Q: And the “Residual semaglutide content in percent (%)” value ([4]; T = 1 h)?
A: 103.5%

Q: What about the “Residual semaglutide content in percent (%)” value ([4]; T = 2 h) of the same compound?
A: 104.1%

Q: What about the “stability of semaglutide (in words)” value ([4]; in the absence of pepsin, in the presence of the buffer system) of the same compound?
A: stable
